We go through 88 compounds from a melting point compilation (Tetko et al.; mined from patent text by program, amines drawn as free bases though some values may be those of a salt).

Molecules are shown by their SMILES.

By melting point is commonly meant the temperature, or range, at which the solid turns liquid. With `Cn1cncc1C(O)(c1ccoc1)c1ccc2nc(Cl)cc(-c3cccc(Cl)c3)c2c1` (stereo not drawn), the melting point is 246 °C.

For the compound `COc1c(OCc2ccccc2)c(OC)c2c(=O)cc(-c3ccc(OCc4ccccc4)c(OCc4ccccc4)c3)oc2c1OC`, the melting point was in the range of 155 to 156 °C.

The compound `O=S(=O)(c1ccc(Cl)cc1)C(c1cccc(CCc2ccccn2)n1)c1cc(F)ccc1F` (stereo not drawn) had a melting point of 88 to 89 °C.

Compound `CNc1nc(-c2cccc(C#Cc3ccccc3)c2)c2cc(OC)c(OC)cc2n1` yielded a melting point of 102 to 104 °C.

In the case of `OCCN1CCN(Cc2ccc(O)c3ncccc23)CC1`, the melting point was 123 to 124 °C.

With `O=S(c1ccccc1)c1ncc(Cl)cc1F` (stereo not drawn), the melting point lay within 77 to 78 °C.

With `CC(C)(C)OC(=O)N1CCC(c2nc3cc(-c4ccc(S(C)(=O)=O)cc4F)ccc3[nH]2)CC1`, the melting point lay in the range of 88 to 92 °C.

As to `COc1cc(C2=Nc3ccc(N4CCCC4)cc3C(=O)C2)ccc1O`, the melting point is 310 to 312 °C.

The compound `CCOC(=O)c1cc(O)cc(O)c1` came in with a melting point of 128 to 130 °C.

On to `Cc1csc(C(=O)CCl)c1`, for which the melting point was in the range of 76 to 77 °C.

On to `CCOC(=O)c1c(Cl)nc(CC)n1Cc1ccc2oc(-c3ccccc3N)c(Br)c2c1`, for which the melting point is 53 to 56 °C.

With `O=C1c2cccc3cccc(c23)C(=O)N1C1OC(CO)C(O)C(O)C1O` (stereo not drawn), the melting point lay within 285 to 286 °C.

`CC=CC(=O)OCC(C)(Sc1cc2ccccc2n1C)c1ccccc1` (stereo not drawn) gave a melting point of 56 to 57 °C.

`Cc1cc2c(cc1O)C(C1(C3CCCc4ccccc43)CC1)N(C)CC2` (stereo not drawn) returned a melting point of 160 to 163 °C.

In the case of `CCOC(=O)C(=O)Nc1ccc(Oc2ccc(NC(=O)C(=O)OCC)cc2)cc1`, the melting point lay within 150 to 158 °C.

Take `CCOC(=O)c1ccc2c(c1)OC(CCCBr)C(=O)N2` (stereo not drawn): the melting point was 118 to 119 °C.

As for `CCCCCCC1=CC(O)(C(Br)Br)N(Cc2ccccc2)C1=O` (stereo not drawn), the melting point is 105 to 108 °C.

`COc1cc(NC(=O)c2c(Cl)cccc2Cl)c2ncccc2c1`: the melting point was in the range of 180 to 182 °C.

The compound `COC(=O)c1ccc(Cc2c(OCc3ccc(-c4ccccc4-c4nnn[nH]4)cc3)cc(C)nc2C)cc1` returned a melting point of 144 to 145 °C.

`CP1(=O)c2ccccc2CN1c1ccc(Br)cc1` (stereo not drawn) registered a melting point of 135 to 136 °C.

Take `CCOC(=O)c1c(C)nn(-c2ccccn2)c1C`: the melting point was 49 to 50 °C.

In the case of `CC(C)(C)C(NC(=O)c1cccc(-c2ccco2)c1)Nc1c(Nc2cccnc2)c(=O)c1=O` (stereo not drawn), the melting point fell in the range of 251 to 252 °C.

For the compound `N#Cc1cccnc1N1CCN(CC(=O)Nc2cccc(C(F)(F)F)c2)CC1`, the melting point lay in the range of 157 to 158 °C.

The compound `CC(C)(S)CN1C(=O)NC(=O)C1=O` registered a melting point of 168 to 170 °C.

The compound `S=C(NCCC1CC(c2ccccc2)=NO1)N1CCOCC1` (stereo not drawn) showed a melting point of 128 to 130 °C.

The compound `C[C@@H]1CN(c2c(C=O)cc(Br)c(F)c2F)C[C@H](C)O1` displayed a melting point of 88.1 to 92 °C.

In turn, `CCn1nc(C(F)(F)F)c(CS(=O)(=O)C2=NOC(C)(CCl)C2)c1F` (stereo not drawn) showed a melting point of 73 to 75 °C.

The compound `O=c1[nH]c(=O)c2c3c(cc([N+](=O)[O-])c2[nH]1)OCO3` registered a melting point of 285 °C.

Compound `O=S(=O)(Nc1ccc2c(OCc3coc(-c4ccccc4)n3)cccc2c1)C(F)(F)F` had a melting point of 195 to 197 °C.

`O=[N+]([O-])c1cccc2nc3c(nc12)OCC1CCCCN31` (stereo not drawn) displayed a melting point of 205 to 207 °C.

`CCCCOc1nc(N)c2[nH]c(=O)n(CCNc3cccc(CC(=O)OC)c3)c2n1` displayed a melting point of 222 to 223 °C.

As for `O=C(/C=C/C=C(c1cccc(F)c1)c1cccc(F)c1)NCCCCc1cccnc1`, the melting point lay in the range of 103 to 104 °C.

Turning to `COc1nc2ccccc2cc1NC(=O)N1CCN(c2cccc(Cl)c2)CC1`, the melting point is 97 to 98 °C.

In the case of `CCC(CC)n1nnc2c(Nc3c(Cl)cc(OC)cc3OC)nc(C)cc21`, the melting point is 168 to 169 °C.

Consider `CCC(=CC(CNC(=O)c1ccncc1)=NO)C(C)[N+](=O)[O-]` (stereo not drawn), for which the melting point was 145 to 148 °C.

`COC1=CC2=C(CN1OC)C1=C(c3cc4c(cc3C1=O)OCO4)C(CCCC(C)O)C2=O` (stereo not drawn) returned a melting point of 288 to 290 °C.

For `C=CCOC1CC(C)(C)N(c2nc(Cl)nc(Cl)n2)C(C)(C)C1`, the melting point was in the range of 53 to 55 °C.

For the compound `O=C(O)c1ccc(OCCOc2ccccc2)cc1O`, the melting point lay in the range of 114 to 116 °C.

`O=c1c2c(Cc3ccc(F)cc3)n[nH]c2c2cccnc2n1-c1cccc(C(F)(F)F)c1` returned a melting point of 243 to 245 °C.

In turn, `Nc1c(NCCCOc2cccc(C3OCCO3)c2)c(=O)c1=O` displayed a melting point of 209 to 210 °C.

In turn, `CC(=O)Oc1cc(Cl)ccc1C(=O)NCCO[N+](=O)[O-]` displayed a melting point of 75 to 77 °C.

As for `CCn1c(=O)c2c(nc(/C=C/c3ccc(O)cc3)n2C)n(CC)c1=O`, the melting point was > 270 °C.

For `Cn1c(CC#N)ccc1C(=O)c1ccccc1`, the melting point fell in the range of 106 to 108 °C.

The compound `Cc1csc(N2CCN(Cc3ccc(C(=O)Nc4ccc(F)cc4)cc3)C2=O)n1` displayed a melting point of 206 to 207 °C.

`CCCOc1c(I)cc(C(=O)CCC(=O)c2cc(OC)c(OC)c(OC)c2)cc1OC` displayed a melting point of 120 to 121 °C.

On to `O=c1oc(-c2ccccc2)cc(O)c1SCC1CCCCC1`, for which the melting point was in the range of 141 to 143 °C.

`COC(=O)c1cc2c(cc1[N+](=O)[O-])OCCO2` came in with a melting point of 115 to 118 °C.

The compound `O=C(CC(=O)C(CF)CF)c1ccc(OCc2ccccc2)cc1` returned a melting point of 184 to 188 °C.

Compound `N#CC(=C1CCCN1)c1ccc(Cl)cc1` registered a melting point of 135 to 137 °C.

In the case of `Nc1cc(C(=O)O)ccc1OCCCCCCc1cccc(O)c1O`, the melting point was in the range of 172 to 174 °C.

As for `CCOC(=O)c1cncn1-c1ccc(F)cc1`, the melting point was 114 to 115 °C.

As for `COc1nc(C)cnc1N(C(=O)OCC(C)C)S(=O)(=O)c1cccnc1Cl`, the melting point fell in the range of 99 to 101 °C.

As to `Nc1ccccc1SCC1=NOCN1`, the melting point is 108 °C.

In turn, `FC(F)(F)Oc1ccc(-c2ccc(OCc3ccccc3)cc2)cc1` returned a melting point of 136 to 137 °C.

Turning to `O=C(O)c1cccc2c1Cc1c-2[nH]c2ccc(F)cc12`, the melting point is > 300 °C.

Take `COc1cc(/C=C/C(=O)c2ccc(NS(C)(=O)=O)cc2)cc(-c2cccs2)c1OC`: the melting point fell in the range of 71 to 75 °C.

For the compound `O=C(O)CCC1OC(=O)C(O)=C1c1ccccc1` (stereo not drawn), the melting point is 177 to 179 °C.

Regarding `Cc1ccc(N2N=C(C(F)(F)F)CC2c2ccc(S(C)(=O)=O)cc2)cc1` (stereo not drawn), the melting point is 140 to 143 °C.

In the case of `COc1cccc(CCC(=O)CCCCCC(=O)O)c1`, the melting point was 41 to 43 °C.

Turning to `CC(C)(C)OC(=O)/C(=C/c1ccccc1Cl)C(=O)c1ccccc1O`, the melting point is 75 to 78 °C.

Compound `COC(=O)C(=CN(C)C)N(C)c1cccc(-c2ccc(Cl)cc2)n1` displayed a melting point of 101 °C.

With `Cn1c(COc2ccc(CC3SC(=O)NC3=O)cc2)nc2ccc(Cl)nc21` (stereo not drawn), the melting point fell in the range of 222 to 223 °C.

The compound `CCc1coc2c(-c3ccc(F)cc3)c(-c3ccc(S(C)(=O)=O)cc3)nn12` registered a melting point of 177 to 179 °C.

The compound `CC1=C(c2ccccc2F)C(=O)N(C(C)(C)C(O)c2ccc(F)c(C)c2)CO1` (stereo not drawn) returned a melting point of 87.6 to 89 °C.

Consider `Cc1ccc2c(c1)oc1c(C(=O)O)nn(-c3ccc(Cl)cc3Cl)c12`, for which the melting point was 228 to 230 °C.

In turn, `Cc1ccc(N(c2ccc(C)cc2)c2ccc(C=C3c4ccccc4C=Cc4ccccc43)cc2)cc1` yielded a melting point of 168 to 169 °C.

On to `O=C1c2ccccc2C(=O)N1CCCCOc1ccc(-c2ccncn2)cc1`, for which the melting point fell in the range of 100 to 102 °C.

In turn, `CC(C)(CC(O)(Cn1ccc(=O)c2ccccc21)C(F)(F)F)c1cc(F)ccc1OC(F)F` (stereo not drawn) had a melting point of 150 to 155 °C.

`CC(C)C[C@@H](CO)NC(=O)[C@H](Cc1c[nH]cn1)N(C(=O)[C@H](Cc1cccc2ccccc12)NC(=O)OCc1ccccc1)C(=O)[C@@H](N)Cc1cccc2ccccc12`: the melting point was in the range of 199 to 200 °C.

Regarding `OC1CCc2c(Br)cccc21` (single isomer, unassigned; (-)), the melting point came out at 81 °C.

The compound `C#CCNc1cc(F)c([N+](=O)[O-])cc1[N+](=O)[O-]` showed a melting point of 113 to 115 °C.

`CCOCc1nc2c(N)nc3cc(OCc4cccc(N)c4)ccc3c2n1CC(C)C`: the melting point was 228 to 230 °C.

Take `CNC(=O)c1ccc2c(c1C)OC(c1ccccc1)(c1ccccc1)O2`: the melting point was in the range of 178 to 180 °C.

`COc1ccc(CCl)c(F)c1OC` had a melting point of 44.5 to 47.5 °C.

The compound `COC(Cc1ccc2oc(Cc3nc(-c4ccccc4)oc3C)cc2c1)C(=O)O` (stereo not drawn) yielded a melting point of 159 to 160 °C.

Take `CCCCCNc1nc(NC(C)C)c2ncn(CC(=O)O)c2n1`: the melting point fell in the range of 173 to 176 °C.

As for `CC(=O)c1ccc(C2=C(c3ccc(S(C)(=O)=O)cc3)OC(C)(C)C2=O)cc1`, the melting point lay within 164 to 167 °C.

With `CCOP(=O)(/C=C/c1cn(-c2ccccc2)nc1OCc1ccc(OCc2coc(-c3ccco3)n2)c(OC)c1)OCC`, the melting point was in the range of 96 to 97 °C.

Turning to `O=C1Nc2ccc(Cl)cc2C1(O)c1cccc(F)c1F` (stereo not drawn), the melting point was 248 °C.

In turn, `COc1ccc(Nc2ncccc2NS(=O)(=O)c2ccc(O)cc2)cc1` came in with a melting point of 214 to 216 °C.

`CCCCc1oc2ccc(C(=O)OC)cc2c1C(=O)c1ccc(CCN=[N+]=[N-])cc1` showed a melting point of 60 to 62 °C.

Compound `O=C1c2ccccc2C(=O)N1Cc1ccccc1[N+](=O)[O-]` registered a melting point of 190 to 209 °C.

In turn, `CC1(C)CCC(C)(C)c2cc([N+](=O)[O-])ccc21` had a melting point of 46 to 50 °C.

Turning to `O=C1C(c2cc3c(cc2O)OCCCO3)c2ccccc2N1C(c1ccccc1)c1ccccc1` (stereo not drawn), the melting point lay within 193 to 195 °C.

Take `O=[N+]([O-])c1cc(-c2nsc(C(F)(F)F)c2Cl)c(Cl)cc1Cl`: the melting point is 104 to 106 °C.

The compound `CC1(C)OC(c2ccc(S(C)(=O)=O)cc2)=C(c2cccnc2)C1=O` gave a melting point of 164 to 166 °C.

As to `O=C(O)c1cc(-n2c(-c3cccc(C(F)(F)F)c3)cc3c2CCCC3)ccc1O`, the melting point lay within 215 to 225 °C.

Regarding `CCC(NC(=N)NC#N)c1ccccc1` (stereo not drawn), the melting point was 121 to 123 °C.
